Data set [1] has as its system human Tregs. The experiment in a line: Human Treg proliferation in humanized mice (NSG-hu). Type of data set: in vivo. From the text:
Commercial antibodies for use in flow cytometry, ELISA and in vivo studies were purchased from BD Pharmingen, eBioscience or BioLegend. The Armenian Hamster IgG Isotype control was bought from eBioscience. Armenian hamster hybridomas producing antibodies to mouse TNFRSF25 (4C12, agonistic) were generated as described in Fang, et al. 2008. Essential role of TNF receptor superfamily 25 (TNFRSF25) in the development of allergic lung inflammation. J Exp Med 205:1037-1048. Briefly, 4C12, hTL1A-Ig and rmTL1A-Ig were produced in hollow fiber bioreactors (Fibercell Systems, Frederick, Md.) and purified from serum-free supernatants on a protein G (4C12) or protein A (TL1A-Ig) column (GE Healthcare, UK). For flow cytometry analysis, single cell suspensions were prepared from spleen and lymph nodes. 10^6 cells were pre-blocked with anti-mouse CD16/CD32 and stained with different antibody combinations. Intracellular staining was performed according to standard procedures. Flow cytometric acquisition was performed on a Becton Dickinson Fortessa instrument and […] or FlowJo software was used for analysis.
Human fetal livers from elective terminations (12-20 weeks of gestational age, Advanced Bioscience Resources) were acquired on a fee for service basis. CD34+ cells were enriched using immunomagnetic beads according to the manufacturer's instructions following density gradient centrifugation of single cell suspensions (CD34+ selection kit; Miltenyi Biotec, Auburn, Calif.). Purity of CD34+ cells isolated was evaluated by flow cytometry and was >85%. Cells were aliquotted and frozen for later HLA typing and transplanted into sub-lethally irradiated neonatal NSG mice. HLA typed CD34+ cells hematopoietic stem cells (HSC) were placed into culture containing 10% human serum, 10 ng/ml each of interleukin (IL)-3, IL-6 and stem cell factor (SCF) in IMDM for 3-5 days. On the day of transplant, cells were harvested from culture dishes and washed in HBSS and CFU and LTC-IC assays were performed to evaluate proliferation and differentiation potential. These assays were performed using standard reagents (StemCell Inc.) and methods as published by the manufacturer. CFU potential was identical to bone marrow progenitor cells following 14 day culture in methylcellulose media supplemented with SCF, GM-CSF, IL-3 and EPO. These assays readily reveal whether gross morphological characteristics and colony numbers of isolated HSC are within expected limits. One-day old NSG mice generated from timed matings were housed with foster-dams for 24 hours post-irradiation (sub-lethal, 1 Gy, whole body irradiation) at which time they are transplanted with 1×10^6−2×10^6 pre-cultured HSC intra-hepatically (i.h.) in a volume of 20 μl using a Hamilton syringe and a 30 gauge ½ inch needle. The pups were immediately returned to their foster-dams and allowed to nurse until weaning at 28 days. Human/mouse chimerism was evaluated in peripheral blood at 15 weeks of age by determining the relative percentages of murine and human CD45+ cells by flow cytometry. Once human CD45+ cells were detected, analysis was extended to include human CD3, CD4, CD8, CD11c and CD19 on all blood collections. Successfully engrafted mice were selected when the fraction of human CD45+ cells in peripheral blood exceeded 60% (NSG-hu).
To determine the in vivo activity of hTL1A-Ig on human Tregs, humanized mice were generated using human fetal liver CD34^+ cells transferred into NOD, SCID, common γ-chain deficient (NSG) recipient mice, as described above. […] The majority of human CD45+ lymphocytes in the spleen were T cells (˜50%) followed by B cells (˜35%), NK cells (˜2-3%) and dendritic cells (˜1%).

The nature of data set [2]: Safety of TL1A-Ig in rhesus macaques (observations, chemistries, CBC, histopathology). It is filed as in vivo. As to conditions: necropsy day 21, 1.5 mg/kg; for histopathology of midbrain, brainstem, liver and pancreas: H&E sections; for histopathology of sigmoid colon / histopathology of terminal ileum: four out of four animals. As to the method:
(§1) Safety and Activity of TL1A-Ig in Rhesus Macaque The safety and efficacy of TL1A-Ig in non-human primates (NHP) (Indian-origin macaca mulatta) were determined. Following routine screening and 60-day quarantine, rhesus macaque (rm) TL1A-Ig or human (h) TL1A-Ig were administered to the NHP on Day 0 by intravenous (IV) bolus infusion (15 minutes) Animal weights and cage-side observations were performed daily and peripheral blood was collected for analysis of complete blood counts, routine chemistries, CD4 TruCounts, serum isolation and flow cytometry analysis. For flow cytometry analysis, peripheral blood cells were counted on a Countess automated cell counter and aliquots of 1.5×10^6 cells were distributed per sample tube, FMO (Fluorescent Minus One), controls, and compensation tubes. Test samples were stained in D-PBS and 0.5% FBS with 1 μL/mL live dead aqua blue discriminator (Life Technologies). Test samples and appropriate controls were surface stained for 30 minutes with the indicated cocktails of antibodies (purchased from BD, Becton Dickinson, eBioscience or Life Technologies). For intracellular staining, cells were permeabilized with Fix/perm solution (eBioscience) for 30 minutes at 4° C. Cells were washed and stained intracellularly with anti-FoxP3 antibody for 30 minutes. Following staining, cells were washed and resuspended in 300 μL, FACs wash buffer for acquisition on a BD™ LSR11 flow cytometer (Beckton Dickinson (BD)). Cells were acquired and analysis was done of FlowJo software (Tree Star, Inc., Ashland, Oreg.). For CD4/CD8 Trucounts, CD45, CD3, CD4 and CD8 antibodies were dispensed in TruCount tubes (BD, Cat.No. 340334); 50 uL samples were added and allowed to stain for 15 minutes at room temperature in the dark. Subsequently, samples are lysed with 450 μL FACS lysing solution, and incubated for 15 minutes. Sample tubes were analyzed in the cytometer (Calibur, BD). The events were gated on lymphocytes in side scatter (SSC) dot plot and the CD45-positive population was selected, and then reported: CD3+CD4+ T cells, and CD3+CD8+ T cells. For multiplex analysis of serum cytokines, serum from the indicated days was collected and samples and controls for standard curves were placed in filter plates, and then diluted ¼, and incubated for 2 hour at room temperature with anti-cytokine beads. The content was removed and washed 2 times with the buffer before adding a mixture of biotinylated detection antibodies to each well. After incubating with detection antibody for 1 hour, plates were washed 2 times and incubated for 30 minutes with streptavidin-PE. Plates were again washed and wells were resuspended with 150 μL sheath fluid; plates were then read and analyzed on the Luminex® SD Analyzer (Life Technologies, Inc.). The PE signal (Median Fluorescent Intensity, MFI) is proportional to the amount of each cytokine present in the sample; concentrations were calculated from the standard curve.
(§2) An inherent limitation of rodent animal models is related to the highly controlled and restricted history of foreign antigen challenge of laboratory animals bred and housed under pathogen-free conditions. Given the antigen-dependent activity of TNFRSF25 agonists, this limitation has important consequences for translational studies of these agents into NHP, wherein the history of foreign antigen exposure is dramatically more diverse. To address this question, rhesus macaque TL1A-Ig (rmTL1A-Ig) was produced and tested in NHP. Treatment-naïve Indian-origin rhesus macaques (nonhuman primates (NHP)) were procured, housed and treated by expert personnel at Advanced Bioscience Laboratories (ABL, Rockville, Md.). Rhesus macaque TL1A-Ig (rmTL1A-Ig) and human (h) TL1A-Ig were manufactured and purified as described above and shipped to ABL personnel at the indicated concentration in blinded tubes diluted in a total volume of 10 ml PBS. […]

Data set [3] in a line: Serum half-life of TL1A-Ig in rhesus macaques. Type of data set: in vivo, rhesus macaque. As to conditions: NHP serum, IV, one-phase exponential decay model. As to the method: Safety and Activity of TL1A-Ig in Rhesus Macaque The safety and efficacy of TL1A-Ig in non-human primates (NHP) (Indian-origin macaca mulatta) were determined. Following routine screening and 60-day quarantine, rhesus macaque (rm) TL1A-Ig or human (h) TL1A-Ig were administered to the NHP on Day 0 by intravenous (IV) bolus infusion (15 minutes) Animal weights and cage-side observations were performed daily and peripheral blood was collected for analysis of complete blood counts, routine chemistries, CD4 TruCounts, serum isolation and flow cytometry analysis. For flow cytometry analysis, peripheral blood cells were counted on a Countess automated cell counter and aliquots of 1.5×10^6 cells were distributed per sample tube, FMO (Fluorescent Minus One), controls, and compensation tubes. Test samples were stained in D-PBS and 0.5% FBS with 1 μL/mL live dead aqua blue discriminator (Life Technologies). […] Sample tubes were analyzed in the cytometer (Calibur, BD). […] Plates were again washed and wells were resuspended with 150 μL sheath fluid; plates were then read and analyzed on the Luminex® SD Analyzer (Life Technologies, Inc.). The PE signal (Median Fluorescent Intensity, MFI) is proportional to the amount of each cytokine present in the sample; concentrations were calculated from the standard curve. […]

The test system of data set [4] is peripheral blood Treg cells. The experiment in a line: Peripheral blood Treg expansion, T cell subsets and serum cytokines in rhesus macaques. Type of data set: in vivo, rhesus macaque. As to conditions: for expansion of the Treg compartment at peak: 1.5 mg/kg, single IV; for expansion of the Treg compartment at peak / time of peak relative fold-expansion of Treg: peripheral blood; for serum levels of IFN-γ and TGF-β: by day 4 after treatment; for serum levels of IL-2, IL-4, IL-5, IL-10 or TNF-α: day 0, day 2, day 4, Luminex. As to the method:
as §1, §2

The record followed here is patent publication USRE48599E1, “Compositions comprising TLIA-Ig fusion protein for the regulation of T regulatory cells, and methods for their use” (University of Miami, priority 2013, dated 2021).

For the molecule “hTL1A-Ig: extracellular domain of human TL1A fused to hinge-CH2-CH3 domain of human IgG1, SEQ ID NO: 16”, in data set [1] (day 5, spleen, lymph node and small intestine), the “total frequency of Treg and proportion of Treg in active proliferation (Ki67+)” value is recorded as “significant increase”. Also, the “expression of CD69 in CD4+ and CD8+ conventional cells” value in data set [1] (lymph nodes) is listed as “not in lymph nodes”. Besides, the “mean Treg value” in data set [1] (lymph nodes, day 5, 100 μg i.p.) worked out at 1.94±0.21. For the same molecule, in data set [1] (small intestine, day 5, 100 μg i.p.), the “mean Treg value (±SEM)” value was determined as 4.54±0.69%. Further, in data set [1] (spleen, day 5, 100 μg i.p.), the “mean Treg value (±SEM), FoxP3+ out of total CD4+CD25hiCD127- cells” value is 1.71±0.24%. The “overall balance of hCD45+, hCD4+ or hCD8+ cells” value in data set [1] (spleen, lymph nodes, small intestine, day 5 after injection) is “did not significantly alter”. In addition, the “expression of CD69 in CD8+ conventional cells” value in data set [1] (spleen, p=0.0064) is “increased expression of CD69”. In addition, in data set [1] (spleen, p=0.0363), the “expression of CD69 in CD4+ conventional cells” value is listed as “increased expression of CD69”. Besides, in data set [2], the “histopathology of midbrain, brainstem, liver and pancreas” value is given as “no evidence of inflammation or pathology”; the “histopathology of sigmoid colon” value is recorded as “mild, multifocal, lymphoplasmacytic infiltrates”; the “histopathology of terminal ileum” value was “mild, diffuse mucosal and submucosal edema”. This molecule came in with a half-life in data set [3] of 12.5 h. Further, in data set [4], the “expansion of the Treg compartment at peak” value is “approximately 3 fold”; the “serum levels of IFN-γ and TGF-β” value is recorded as “trend toward decreased levels”; the “serum levels of IL-2, IL-4, IL-5, IL-10 or TNF-α” value is listed as “no detectable changes”; the “time of peak relative fold-expansion of Treg” value is listed as 4 days post-treatment.

B1: rmTL1A-Ig: extracellular domain of rhesus macaque TL1A fused to hinge-CH2-CH3 domain of rhesus macaque IgG1, SEQ ID NO: 10 (protein)
chain: METDTLLLWVLLLWVPGSTGDLEIKTCGGGSKPPTCPPCPAPELLGGPSVFLFPPKPKDTLMISRTPEVTCVVVDVSQEDPDVKFNWYVNGAEVHHAQTKPRETQYNSTYRVVSVLTVTHQDWLNGKEYTCKVSNKALPVPIQKTISKDKGQPREPQVYTLPPSREELTKNQVSLTCLVKGFYPSDIVVEWENSGQPENTYKTTPPVLDSDGSYFLYSKLTVDKSRWQQGNVFSCSVMHEALHNHYTQEFKGQEFAPSHQQVYAPLRADGDKPRAHLTVVTQTPTQHFKNQFPALHWEHELGLAFTKNRMNYTNKFLLIPESGDYFIYSQVTFRGMTSECSEIRQAGRPNKPDSITVVITKVTDSYPEPTQLLMGTKSVCEVGSNWFQPIYLGPMFSLQEGDKLMVNVSDISLVDYTKEDKTFFGAFLL
As for B1, in data set [2], the “histopathology of midbrain, brainstem, liver and pancreas” value is “no evidence of inflammation or pathology”; the “histopathology of sigmoid colon” value is “mild, multifocal, lymphoplasmacytic infiltrates”; the “histopathology of terminal ileum” value is “mild, diffuse mucosal and submucosal edema”. For the same molecule, the Treg expansion result in data set [4] (0.5 mg/kg dose versus 1.5 mg/kg) is on record as “non-significantly reduced trend”. Besides, in data set [4], the “expansion of the Treg compartment at peak” value is reported as “approximately 3 fold”; the “serum levels of IFN-γ and TGF-β” value is recorded as “trend toward decreased levels”; the “serum levels of IL-2, IL-4, IL-5, IL-10 or TNF-α” value is listed as “no detectable changes”; the “time of peak relative fold-expansion of Treg” value worked out at 4 days post-treatment.
